The text below walks through data of US4632922A, “Oxomorpholinyl dimer and rescue of anthracycline and mitomycin C damage” (The United States of America as represented by the …, priority 1985, dated 1986).

Experiment [1] can be described thus: Kinetics of reaction of DHM3 with daunorubicin in methanol solvent. As for the experimental part: Oxomorpholinyl dimer DHM3 (5.8 mg) was dissolved in 100 ml of oxygen-free dichloromethane by stirring under nitrogen for 1 h. A portion of the solution (1.0 ml, 1.8×10^-4 mmol) of DHM3 was transferred via syringe to the spectrophotometric compartment of a two-compartment Pyrex cell with attachment for connection to a vacuum line with an Ultra Torr Union. The solvent was then evaporated with a stream of nitrogen. Daunorubicin hydrochloride (8.83 mg) was dissolved in 100 ml of a methanolic solution of 18.9 mg of tris(hydroxymethyl)aminomethane (Tris) and 24.7 mg of Tris hydrochloride. A portion of this solution (2.5 ml, 3.9×10^-4 mmol of 6) was introduced via syringe into the second compartment of the cell. The methanol solution was freeze (liquid nitrogen)-pump (2×10^-6 Torr)-thaw degassed through four cycles, sealed, and placed in a thermostatted cell holder at 25.1±0.1° C. for about 15 min. prior to mixing the solution with DHM3. After mixing, the average absorbance at 618 and 620 nm was recorded versus time. A non-linear least-squares treatment of the data as mentioned below gave a first order rate constant for bond homolysis of DHM3 equal to 1.8×10^-3 sec^-1.
The oxomorpholinyl dimer DHM3 causes reductive elimination of the sugar moiety, daunosamine, of daunorubicin (6) in much the same way as the structurally related bi(3,5,5-trimethyl-2-oxomorpholin-3-yl) (9). (See Schematic FIG. 2). […] The kinetics were established by regressional, non-linear least squares fitting of the absorbance versus time data to equation 1,
-k1))(e^-k.sbsp.1^t -e^-k.sbsp.2^t)
where At is the absorbance of 7 at time t, ε7 is the extinction coefficient of 7 at 618-620 nm, [DHM3]o is the concentration of DHM-3 at time zero, k1 is the rate constant for bond homolysis of DHM3 and k2 is the rate constant for tautomerization of 7 to 8. The value obtained for k1, 1.8×10^-3 sec^-1, was approximately half that obtained for bond homolysis of 9. […]

Experiment [2] in a line: Kinetics of reaction of DHM3 with daunorubicin in water solvent. As for the experimental part: A test similar to that described for the same reaction in methanol solvent (vide supra) was run. Oxomorpholinyl dimer DHM3 (1.38 mg, 4.37×10^-3 mmol) was dissolved in 0.5 ml of oxygen-free methanol and quickly transferred without delay into one compartment of the cell. The solvent was promptly removed under vacuum. Daunorubicin hydrochloride ([…]) was dissolved in 100 ml of an aqueous solution of Tris (24.2 mg) and Tris hydrochloride (31.6 mg) and 2.6 ml of this solution (4.18×10^-4 mmol of 6) was introduced into the other compartment of the cell. The sample was freeze-thaw degassed over three cycles as described above, sealed, and placed in a thermostatted cell holder at 10.0±0.1° C. for about 20 min prior to mixing. Full spectra between 320 and 800 nm were recorded every 10 sec for the first 125 sec, and then every 20 sec. From the absorbance change at 620 nm over the first 85 sec (50% reaction of daunorubicin), a non-linear least-squares treatment gave a first order rate constant for bond homolysis of DHM3 (k1) equal to 6×10^-4 sec^-1 and a first order rate constant for destruction of 7 (k2) equal to 2×10^-2 sec^-1. Treatment of the data obtained in the 164-225 sec interval gave k2 =2.8×10^-2 sec^-1.
Thus, when a ten-fold excess of DHM3 is reacted with an oxygen-free 2×10^-4 M solution of 6 in buffered water (pH8) at 10° C., the absorbance of the solution at 618-620 nm, due to the tautomer 7, reaches its maximum after 125 sec and then decreases quickly, with an 80% decrease in 100 sec. Here again the formation and destruction of 7, as calculated from the data obtained in the first 85 sec of reaction, follows consecutive first order kinetics, first order in DHM3 and 7, with k1 =6×10^-4 sec^-1, k2 =2×10^-2 sec^-1 and ε7 =9600. Calculation of k2 from the absorbance data taken after 165 sec of reaction time, when only first order destruction of 7 is observed, gives a value of 2.8×10^-2 sec^-1.

As for `CC1(CO)COC(=O)C(C)(C2(C)NC(C)(CO)COC2=O)N1` (centres unmarked) [DHM3, bi(3,5-dimethyl-5-hydroxymethyl-2-oxomorpholin-3-yl)], the “reaction product with daunorubicin” value in experiment [1] (1:2 molar ratio, oxygen degassed methanol, 25° C.) is “gives 7-deoxydaunorubicinone 8 as the only reaction product”. Besides, the “k1 relative to that obtained for bond homolysis of 9” value in experiment [1] (methanol, 25° C.) is “approximately half”. Besides, the “first order rate constant for bond homolysis of DHM3 (k1)” value is 0.0018 s⁻¹ in experiment [1] (methanol, 25.1±0.1° C., with daunorubicin) and 0.0006 s⁻¹ in experiment [2] (buffered water (pH8), 10.0±0.1° C., first 85 sec). The “reactivity with daunorubicin compared with TM-3” value in experiment [2] (DHM3 in water vs TM-3 in methanol) is on record as “approximately the same reactivity”.
